Laboratory results published in paper PMC3474704 (Clinical cancer research : an official journal of the …, 2012).
Like-named read-outs stand apart in the source and are kept apart here.

What was measured:
FLT3 = FLT3 (Homo sapiens, UniProt P36888); test: FLT3 IC50 determination; format: biochemical
Calu6 [1] = test: cells; conditions: Homo sapiens, Calu-6, 96 h
HT29 xenografts = test: HT29 xenograft growth delay, combination with gemcitabine; format: in vivo, mouse
[2] = system: S296 CHK1 autophosphorylation; test: Biomarker changes in HT29 xenografts; format: in vivo, mouse; conditions: 100 or 150mg/kg p.o. with gemcitabine 100mg/kg i.v., P<0.05
CHK1 [3] = target: T1, CHK1 (Homo sapiens, UniProt O14757); test: Cell-based ELISA for G2 checkpoint abrogation
T1 sequence (O14757 1-476): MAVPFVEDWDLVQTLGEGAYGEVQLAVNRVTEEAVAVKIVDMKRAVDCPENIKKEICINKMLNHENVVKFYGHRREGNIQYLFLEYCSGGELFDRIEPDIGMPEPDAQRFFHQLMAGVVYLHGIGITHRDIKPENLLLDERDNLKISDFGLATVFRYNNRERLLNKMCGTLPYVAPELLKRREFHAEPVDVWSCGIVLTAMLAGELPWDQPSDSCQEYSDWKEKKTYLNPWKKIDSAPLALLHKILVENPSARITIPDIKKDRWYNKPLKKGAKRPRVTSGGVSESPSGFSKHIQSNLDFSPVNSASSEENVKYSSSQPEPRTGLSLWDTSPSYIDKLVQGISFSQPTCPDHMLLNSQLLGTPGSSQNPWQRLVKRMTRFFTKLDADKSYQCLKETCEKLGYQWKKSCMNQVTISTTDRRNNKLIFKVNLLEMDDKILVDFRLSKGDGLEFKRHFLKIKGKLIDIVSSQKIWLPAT

HT29 [4] = test: cells; conditions: Homo sapiens, HT-29, 96 h
Calu6 xenografts = test: Calu6 xenograft growth delay, combination with gemcitabine; format: in vivo, mouse
CHK1 [5] = target: T1, CHK1; test: Kinase profiling at 1 μM: CHK1; format: biochemical
Calu6 [6] = system: Calu6
SW620 [7] = system: SW620
HT29 [8] = system: HT29
Aurora B = Aurora B (Homo sapiens, UniProt Q96GD4); test: Kinase profiling at 1 μM: Aurora B; format: biochemical
Chain of Aurora B (Q96GD4 whole entry): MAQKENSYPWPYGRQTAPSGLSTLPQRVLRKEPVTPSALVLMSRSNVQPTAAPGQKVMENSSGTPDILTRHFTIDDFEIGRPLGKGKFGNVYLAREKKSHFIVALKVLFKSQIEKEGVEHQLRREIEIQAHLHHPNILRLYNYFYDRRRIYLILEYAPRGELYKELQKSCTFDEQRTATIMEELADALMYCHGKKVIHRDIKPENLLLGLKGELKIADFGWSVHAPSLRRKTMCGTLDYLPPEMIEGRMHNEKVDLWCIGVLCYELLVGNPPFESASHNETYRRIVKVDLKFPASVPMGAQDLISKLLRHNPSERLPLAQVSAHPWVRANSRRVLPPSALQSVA

CHK1 [9] = target: T1, CHK1; test: Cell-based ELISA for G2 checkpoint abrogation; remark: listed apart in the source
RSK = test: Kinase profiling at 1 μM: RSK; format: biochemical, human
CHK2 = CHK2 (Homo sapiens, UniProt O96017); test: CHK2 IC50 determination; format: biochemical
Chain of CHK2 (O96017 whole entry): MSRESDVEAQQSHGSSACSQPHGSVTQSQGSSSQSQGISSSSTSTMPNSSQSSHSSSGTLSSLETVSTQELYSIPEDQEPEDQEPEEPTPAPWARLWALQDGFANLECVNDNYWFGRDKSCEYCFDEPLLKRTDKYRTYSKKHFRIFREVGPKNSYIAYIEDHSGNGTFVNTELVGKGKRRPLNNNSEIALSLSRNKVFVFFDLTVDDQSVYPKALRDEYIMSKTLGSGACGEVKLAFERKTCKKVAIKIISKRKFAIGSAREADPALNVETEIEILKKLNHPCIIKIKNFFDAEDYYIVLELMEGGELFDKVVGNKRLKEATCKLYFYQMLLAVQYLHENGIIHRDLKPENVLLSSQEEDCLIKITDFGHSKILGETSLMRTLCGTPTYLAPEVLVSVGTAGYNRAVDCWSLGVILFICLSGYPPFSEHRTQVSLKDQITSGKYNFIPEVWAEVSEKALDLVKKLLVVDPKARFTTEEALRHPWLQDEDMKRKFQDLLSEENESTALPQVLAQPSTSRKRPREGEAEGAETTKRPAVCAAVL

CHK1 [10] = target: T1, CHK1; conditions: HT29
[11] = system: four human tumor cell lines; test: cells
120-140 human kinases = test: In vitro kinase profiling at 1 and 10 μM, ATP at Km; format: biochemical
[12] = system: MYCN-driven neuroblastoma; test: Single agent activity in TH-MYCN transgenic mouse model of neuroblastoma; format: in vivo
[13] = system: pS296, pS317 and pS345 CHK1; test: Western blotting of CHK1 phosphorylation biomarkers in HT29 cells; format: cell-based, human; conditions: SN38, up to 5μM
[14] = Plasma protein binding by ultra filtration; format: in vitro ADME; conditions: mouse
CDK1 = CDK1 (Homo sapiens, UniProt P06493); test: biochemical
Chain of CDK1 (P06493 whole entry, looked up): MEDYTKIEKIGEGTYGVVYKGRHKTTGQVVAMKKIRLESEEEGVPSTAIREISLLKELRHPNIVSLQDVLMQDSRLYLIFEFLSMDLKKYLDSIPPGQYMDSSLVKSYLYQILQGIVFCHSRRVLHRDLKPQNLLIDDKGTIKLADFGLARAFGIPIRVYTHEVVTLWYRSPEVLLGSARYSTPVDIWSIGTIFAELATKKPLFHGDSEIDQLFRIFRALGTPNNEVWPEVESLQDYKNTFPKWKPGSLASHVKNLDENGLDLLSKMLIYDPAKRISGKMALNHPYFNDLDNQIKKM

SW620 [15] = test: cells; conditions: Homo sapiens, SW-620, 96 h
HT29 tumors = test: HT29 xenograft growth delay, combination with irinotecan; format: in vivo, mouse; conditions: for growth delay: HT29 tumors
[16] = system: SW620 colon carcinoma cell line; test: Cell cycle analysis; format: cell-based, human
recombinant human CHK1 = recombinant human CHK1 (Homo sapiens, UniProt O14757); test: biochemical
[17] = Plasma pharmacokinetics in BALB/c mice; format: in vivo, mouse; conditions: for AUC0-∞ / peak plasma concentration: BALB/c mice
NUAK1 = NUAK1 (Homo sapiens, UniProt O60285); test: Kinase profiling at 1 μM: NUAK1; format: biochemical
Chain of NUAK1 (O60285 whole entry): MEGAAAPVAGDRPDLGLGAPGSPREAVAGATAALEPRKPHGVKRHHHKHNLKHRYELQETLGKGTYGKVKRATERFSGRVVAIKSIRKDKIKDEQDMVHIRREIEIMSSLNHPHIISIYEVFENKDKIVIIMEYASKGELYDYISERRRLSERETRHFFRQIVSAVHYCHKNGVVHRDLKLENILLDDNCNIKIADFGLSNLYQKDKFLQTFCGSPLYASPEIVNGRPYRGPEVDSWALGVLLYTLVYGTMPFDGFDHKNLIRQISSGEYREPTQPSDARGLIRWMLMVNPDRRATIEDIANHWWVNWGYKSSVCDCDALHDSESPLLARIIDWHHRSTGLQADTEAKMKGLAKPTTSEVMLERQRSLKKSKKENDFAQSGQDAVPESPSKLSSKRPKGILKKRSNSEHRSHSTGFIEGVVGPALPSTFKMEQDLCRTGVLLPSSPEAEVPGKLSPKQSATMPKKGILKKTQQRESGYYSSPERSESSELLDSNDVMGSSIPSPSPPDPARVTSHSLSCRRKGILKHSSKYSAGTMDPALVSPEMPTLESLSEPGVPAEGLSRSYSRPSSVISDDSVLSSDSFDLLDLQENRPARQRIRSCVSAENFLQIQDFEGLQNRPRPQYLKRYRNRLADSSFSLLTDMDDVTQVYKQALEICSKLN

[18] = BALB/c, mouse, in vivo, po, 10 mg/kg

Chain of FLT3 (P36888 27-993): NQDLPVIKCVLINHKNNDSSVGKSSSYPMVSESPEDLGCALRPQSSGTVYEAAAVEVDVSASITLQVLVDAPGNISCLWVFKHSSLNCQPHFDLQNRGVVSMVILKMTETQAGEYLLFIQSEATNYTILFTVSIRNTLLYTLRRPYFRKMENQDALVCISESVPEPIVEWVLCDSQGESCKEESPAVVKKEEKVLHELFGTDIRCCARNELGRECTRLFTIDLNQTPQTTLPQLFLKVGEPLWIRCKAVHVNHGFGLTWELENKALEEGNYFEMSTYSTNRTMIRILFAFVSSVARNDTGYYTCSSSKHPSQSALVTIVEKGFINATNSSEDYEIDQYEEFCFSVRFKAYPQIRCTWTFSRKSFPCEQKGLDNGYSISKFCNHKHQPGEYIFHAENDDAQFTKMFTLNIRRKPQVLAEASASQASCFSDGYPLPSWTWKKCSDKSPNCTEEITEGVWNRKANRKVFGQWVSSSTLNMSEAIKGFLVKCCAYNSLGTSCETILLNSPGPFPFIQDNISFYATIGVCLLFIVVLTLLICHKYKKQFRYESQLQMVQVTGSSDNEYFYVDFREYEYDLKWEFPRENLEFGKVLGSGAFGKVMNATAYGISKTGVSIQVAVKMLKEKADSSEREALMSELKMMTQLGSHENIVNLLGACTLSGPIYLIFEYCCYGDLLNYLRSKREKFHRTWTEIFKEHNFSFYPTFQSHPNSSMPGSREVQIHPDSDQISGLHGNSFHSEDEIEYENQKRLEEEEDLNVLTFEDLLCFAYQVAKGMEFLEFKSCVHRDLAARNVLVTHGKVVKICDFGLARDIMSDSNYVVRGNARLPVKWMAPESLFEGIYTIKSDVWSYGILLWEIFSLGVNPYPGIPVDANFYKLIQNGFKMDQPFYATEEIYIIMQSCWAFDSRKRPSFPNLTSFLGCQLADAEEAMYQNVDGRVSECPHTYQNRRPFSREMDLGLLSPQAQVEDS

COc1cc(Nc2cnc(C#N)c(O[C@H](C)CN(C)C)n2)ncc1-c1cnn(C)c1 [CCT244747]
IC50 (FLT3): 0.6 µM | selectivity against FLT3 (FLT3; versus CHK1): 75 fold | GI50 (Calu6 [1]): 0.33 ± 0.051 µM | growth delay (HT29 xenografts; 75mg/kg p.o. added to gemcitabine 100mg/kg i.v.): 11.4 days | antitumor effect alone (HT29 xenografts; 75mg/kg p.o. alone): minimal effect | difference in growth delay, combination versus gemcitabine alone (HT29 xenografts; P<0.001): 9.1 days | body weight loss (HT29 xenografts; combination with gemcitabine): minimal body weight loss | effect on gemcitabine induced S296 CHK1 autophosphorylation in vivo [2]: significantly decreased | IC50 (CHK1 [3]): 0.044 ± 0.01 µM | GI50 (HT29 [4]): 0.62 ± 0.23 µM | growth delay (Calu6 xenografts; Calu6 xenografts, 75mg/kg p.o. added to gemcitabine 100mg/kg i.v.): 15.9 days | antitumor activity of each agent alone (Calu6 xenografts; Calu6 xenografts, CCT244747 75mg/kg p.o. or gemcitabine 100mg/kg i.v. alone): minimal activity | increase in growth delay, combination versus gemcitabine alone (Calu6 xenografts; Calu6 xenografts, P<0.001): 8.7 days | nadir of body weight loss (Calu6 xenografts; combination with gemcitabine, day 8): 5.4% | inhibition of CHK1 in kinase profiling (CHK1 [5]): marked inhibition | Potentiation Index (PI) (Calu6 [6]; Gem): 5.6±0.96 (n=3) | Potentiation Index (PI) (Calu6 [6]; SN38): 1.4±0.24 (n=3) | Potentiation Index (PI) (SW620 [7]; 5FU): 4.9±0.8 (n=3) | Potentiation Index (PI) (SW620 [7]; 5FdU): 47±14 (n=3) | Potentiation Index (PI) (SW620 [7]; CDDP): 4.2±0.87 (n=3) | Potentiation Index (PI) (SW620 [7]; Etop): 4.9±2.2 (n=3) | Potentiation Index (PI) (SW620 [7]; Gem): 12.2±2.7 (n=5) | Potentiation Index (PI) (SW620 [7]; IR +1h): 4.9±1.6 (n=4) | Potentiation Index (PI) (SW620 [7]; IR −1h): 4.5±1.2 (n=4) | Potentiation Index (PI) (SW620 [7]; SN38): 2.6±0.6 (n=3) | Potentiation Index (PI) (HT29 [8]; 5FU): 2.2±0.2 (n=3) | Potentiation Index (PI) (HT29 [8]; 5FdU): 9.6±1.2 (n=3) | Potentiation Index (PI) (HT29 [8]; CDDP): 1.8±0.32 (n=3) | Potentiation Index (PI) (HT29 [8]; Etop): 1.9±0.63 (n=4) | Potentiation Index (PI) (HT29 [8]; Gem): 8.5±1.6 (n=4) | Potentiation Index (PI) (HT29 [8]; IR +1h): 3.0±0.67 (n=4) | Potentiation Index (PI) (HT29 [8]; IR −1h): 3.9±0.32 (n=4) | Potentiation Index (PI) (HT29 [8]; SN38, SRB GI50 / Combination GI50): 1.9±0.14 (n=4) | inhibition at 1 µM (Aurora B): > 50% | IC50 (CHK1 [9]): 0.029 to 0.17 µM | inhibition (RSK): > 50% | IC50 (CHK2): > 10 µM | selectivity against CHK2 (CHK2; versus CHK1): more than 1,000 fold | Potentiation Index (PI) (MiaPaCa-2; Gem): 16±6.3 (n=5) | Potentiation Index (PI) (MiaPaCa-2; SN38): 5.0±0.82 (n=5) | therapeutic window (ratio of MIA and GI50) (CHK1 [10]): 21 fold | GI50 [11]: 0.33 to 3 µM | number of kinases with >50% inhibition (120-140 human kinases; 1μM, panel of 140 kinases): 8 | number of kinases inhibited by ≥80% (120-140 human kinases; 10μM, total of 121 kinases): 9 | tolerability ([12]; TH-MYCN mice, 100mg/kg p.o. × 7 days): well tolerated with no drug-related morbidity | effect on tumor versus vehicle treated controls (final tumor weight) ([12]; TH-MYCN neuroblastoma, 100mg/kg p.o. × 7 days, P<0.001): significant tumor shrinkage | tumor volume reduction by MRI ([12]; TH-MYCN neuroblastoma, 100mg/kg p.o. × 7 days, one example tumor): 79% | post-treatment tumor volume (MRI) ([12]; TH-MYCN neuroblastoma, 100mg/kg p.o. × 7days, pre-treatment 1960mm^3): 417 mm^3 | abolition of S317 and S345 CHK1 phosphorylation [13]: neither phosphorylation was completely abolished | fraction unbound at 1 h, 10 μM [14]: 0.244 | IC50 (CDK1): > 10 µM | GI50 (SW620 [15]): 3 ± 1.2 µM | growth delay (HT29 tumors; 150mg/kg p.o. added to irinotecan 25mg/kg i.p.): 13.5 days | growth delay (HT29 tumors; 150mg/kg p.o. alone): 0.3 days | nadir of body weight loss (HT29 tumors; combination with irinotecan, day 10): 1.3% | effect alone on the cell cycle ([16]; alone, up to 1μM × 24h): minimal effects | increase in G1 ([16]; with gemcitabine 10nM × 24h): 4.4% | increase in S'-phase ([16]; with gemcitabine 10nM × 24h): 19% | reduction in S-phase ([16]; with gemcitabine 10nM × 24h): 28.8% | IC50 (recombinant human CHK1): 0.008 µM | AUC0-∞ ([17]; 10mg/kg i.v.): 3.93 μMh | peak plasma concentration ([17]; 10mg/kg i.v., at 5 min): 3.62 µM | AUC0-∞ ([17]; 10mg/kg oral): 2.43 μMh | peak plasma concentration ([17]; 10mg/kg oral): 0.98 µM | clearance ([17]; BALB/c, mouse, in vivo, 10 mg/kg): 6.2 L/h/kg | half-life ([17]; BALB/c, mouse, in vivo, iv, 10 mg/kg): 40.2 min | bioavailability [17, 18]: 62% | half-life [17, 18]: 55.2 min | inhibition at 1 µM (NUAK1): > 50%
